# Values quoted from earlier work, collected in patent US7985432B2, “Insect repellent” (Bioniche Life Sciences, Inc., priority 2003, dated 2011).
# Tested on: Mosquitoes
smiles,measurement,value
CC1=COC(=O)C2C(C)CCC12 (stereo not shown) [Nepetalactone],Effectiveness at repelling mosquitoes relative to DEET,about ten times more effective at repelling mosquitoes than DEET
